Reference: US9695155B2, “Herbicidal substituted pyrimidinyloxy benzene compounds” (E. I. DU PONT DE NEMOURS AND COMPANY, priority 2013, dated 2017)

Tests used:
galium = assay: Test C preemergence; type: in vivo, Galium aparine
Summary of the method: (§1)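 Whole-plant greenhouse test with surfactant-containing solvent formulation, applied preemergence to sown loam–sand pots or postemergence to 2–18 cm plants. Scored by eye 13 to 15 days on, 0–100 scale.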

oilseed rape = assay: Test C preemergence; type: in vivo, Brassica napus
Summary of the method: as §1

waterhemp = assay: Test C preemergence; type: in vivo, Amaranthus rudis
Summary of the method: as §1

barnyardgrass [1] = assay: Test B flooded paddy test; type: in vivo, Echinochloa crus-galli; conditions: Flood, 250 g ai/ha, 0 to 100 scale where 0 is no effect and 100 is complete control
Summary of the method: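 Flooded to 3 cm at the 2-leaf stage, pots received compound through the paddy water and were kept at that depth under greenhouse conditions. After 13–15 days, effect was rated by eye relative to controls, 0 = none and 100 = complete control.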

soybean = assay: Test C preemergence; type: in vivo, Glycine max
Summary of the method: as §1

barnyardgrass [2] = assay: Test A postemergence; type: in vivo, Echinochloa crus-galli
Summary of the method: (§2)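 Visual 0–100 rating (100 = complete control) taken about 10 d post-treatment relative to untreated checks. Preemergence: directed soil spray on sown loam/sand pots. Postemergence: seedlings 2–10 cm, 1–2 leaf. Non-phytotoxic solvent formulation with surfactant.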

morningglory = assay: Test C preemergence; type: in vivo, Ipomoea coccinea
Summary of the method: as §1

pigweed = assay: Test A postemergence; type: in vivo, Amaranthus retroflexus
Summary of the method: as §2

barnyardgrass [3] = assay: Test C preemergence; type: in vivo, Echinochloa crus-galli
Summary of the method: as §1

giant foxtail = assay: Test A preemergence; type: in vivo, Setaria faberii; conditions: for Foxtail, Giant plant response rating (0 to 100 scale): 125 g ai/ha
Summary of the method: as §2

[4] = 16 g ai/ha, preemergence, scale 0 to 100 (0 no effect, 100 complete control)
[5] = 125 g ai/ha, preemergence, scale 0 (no effect) to 100 (complete control)
[6] = Preemergence, 62 g ai/ha, scale 0 to 100, 0 no effect, 100 complete control
[7] = 31 g ai/ha, 0 to 100 scale, 0 no effect, 100 complete control
[8] = 125 g ai/ha, 0 to 100 scale, 0 no effect, 100 complete control

Q: What does the source list for `N#Cc1cccc(Oc2ncc(Cl)cn2)c1-n1cnc(C(F)(F)F)c1` [Compound 252, 3-[(5-chloro-2-pyrimidinyl)oxy]-2-[4-(trifluoromethyl)-1H-imidazol-1-yl]benzonitrile]?
A: pest or weed control at 16 g/ha (galium; Galium, pre-emergence, 16 g ai/ha, preemergence, scale 0 to 100 (0 no effect, 100 complete control), read-out: Galium plant response rating): 80%; pest or weed control at 125 g/ha (galium; Galium, pre-emergence, 125 g ai/ha, preemergence, scale 0 (no effect) to 100 (complete control), read-out: Galium plant response rating): 98%; pest or weed control at 62 g/ha (galium; Galium, pre-emergence, Preemergence, 62 g ai/ha, scale 0 to 100, 0 no effect, 100 complete control, read-out: Plant response rating, Galium): 90%; plant injury at 16 g/ha (oilseed rape; Brassica napus, pre-emergence, 16 g ai/ha, preemergence, scale 0 to 100 (0 no effect, 100 complete control), read-out: Oilseed Rape plant response rating): 80%; plant injury at 125 g/ha (oilseed rape; Brassica napus, pre-emergence, 125 g ai/ha, preemergence, scale 0 (no effect) to 100 (complete control), read-out: Oilseed Rape plant response rating): 100%; plant injury at 62 g/ha (oilseed rape; Brassica napus, pre-emergence, Preemergence, 62 g ai/ha, scale 0 to 100, 0 no effect, 100 complete control, read-out: Plant response rating, Oilseed Rape): 100%; pest or weed control at 16 g/ha (waterhemp; Amaranthus tuberculatus, pre-emergence, 16 g ai/ha, preemergence, scale 0 to 100 (0 no effect, 100 complete control), read-out: Waterhemp plant response rating): 100%; pest or weed control at 125 g/ha (waterhemp; Amaranthus tuberculatus, pre-emergence, 125 g ai/ha, preemergence, scale 0 (no effect) to 100 (complete control), read-out: Waterhemp plant response rating): 100%; pest or weed control at 62 g/ha (waterhemp; Amaranthus tuberculatus, pre-emergence, Preemergence, 62 g ai/ha, scale 0 to 100, 0 no effect, 100 complete control, read-out: Plant response rating, Waterhemp): 100%; pest or weed control at 250 g/ha (barnyardgrass [1]; Echinochloa crus-galli, read-out: Plant response rating, Barnyardgrass): 40%; plant injury at 16 g/ha (soybean; Glycine max, pre-emergence, 16 g ai/ha, preemergence, scale 0 to 100 (0 no effect, 100 complete control), read-out: Soybean plant response rating): 65%; plant injury at 125 g/ha (soybean; Glycine max, pre-emergence, 125 g ai/ha, preemergence, scale 0 (no effect) to 100 (complete control), read-out: Soybean plant response rating): 98%; plant injury at 62 g/ha (soybean; Glycine max, pre-emergence, Preemergence, 62 g ai/ha, scale 0 to 100, 0 no effect, 100 complete control, read-out: Plant response rating, Soybean): 95%; pest or weed control at 31 g/ha (barnyardgrass [2]; Echinochloa crus-galli, post-emergence, 240 h, 31 g ai/ha, 0 to 100 scale, 0 no effect, 100 complete control, read-out: Plant response rating, Barnyardgrass): 20%; pest or weed control at 125 g/ha (barnyardgrass [2]; Echinochloa crus-galli, post-emergence, 240 h, 125 g ai/ha, 0 to 100 scale, 0 no effect, 100 complete control, read-out: Plant response rating, Barnyardgrass): 100%; pest or weed control at 500 g/ha (barnyardgrass [2]; Echinochloa crus-galli, post-emergence, 240 h, 500 g ai/ha, 0 to 100 scale where 0 is no effect and 100 is complete control, read-out: Plant response rating, Barnyardgrass): 100%; pest or weed control at 16 g/ha (morningglory; Ipomoea, pre-emergence, 16 g ai/ha, preemergence, scale 0 to 100 (0 no effect, 100 complete control), read-out: Morningglory plant response rating): 45%; pest or weed control at 125 g/ha (morningglory; Ipomoea, pre-emergence, 125 g ai/ha, preemergence, scale 0 (no effect) to 100 (complete control), read-out: Morningglory plant response rating): 100%; pest or weed control at 62 g/ha (morningglory; Ipomoea, pre-emergence, Preemergence, 62 g ai/ha, scale 0 to 100, 0 no effect, 100 complete control, read-out: Plant response rating, Morningglory): 95%; pest or weed control at 31 g/ha (pigweed; Amaranthus retroflexus, post-emergence, 31 g ai/ha, 0 to 100 scale, 0 no effect, 100 complete control, read-out: Plant response rating, Pigweed): 80%; pest or weed control at 125 g/ha (pigweed; Amaranthus retroflexus, post-emergence, 125 g ai/ha, 0 to 100 scale, 0 no effect, 100 complete control, read-out: Plant response rating, Pigweed): 100%; pest or weed control at 500 g/ha (pigweed; Amaranthus retroflexus, post-emergence, 500 g ai/ha, 0 to 100 scale where 0 is no effect and 100 is complete control, read-out: Plant response rating, Pigweed): 100%; pest or weed control at 16 g/ha (barnyardgrass [3]; Echinochloa crus-galli, pre-emergence, 16 g ai/ha, preemergence, scale 0 to 100 (0 no effect, 100 complete control), read-out: Barnyardgrass plant response rating): 10%; pest or weed control at 125 g/ha (barnyardgrass [3]; Echinochloa crus-galli, pre-emergence, 125 g ai/ha, preemergence, scale 0 (no effect) to 100 (complete control), read-out: Barnyardgrass plant response rating): 100%; pest or weed control at 62 g/ha (barnyardgrass [3]; Echinochloa crus-galli, pre-emergence, Preemergence, 62 g ai/ha, scale 0 to 100, 0 no effect, 100 complete control, read-out: Plant response rating, Barnyardgrass): 100%; Foxtail, Giant plant response rating (0 to 100 scale) (giant foxtail): 100; pest or weed control at 31 g/ha (giant foxtail; Setaria faberi, pre-emergence, 240 h, 31 g ai/ha, 0 to 100 scale where 0 is no effect and 100 is complete control, visual, approximately 10 days, read-out: Plant response rating, Foxtail, Giant): 70%; pest or weed control at 500 g/ha (giant foxtail; Setaria faberi, pre-emergence, 240 h, 500 g ai/ha, 0 to 100 scale where 0 is no effect and 100 is complete control, read-out: Foxtail, Giant plant response rating): 100%

Q: With `Fc1cccc(Oc2ncc(Cl)cn2)c1-n1cc(OCC(F)(F)F)cn1` [Compound 270] as the molecule, how does the “Galium plant response rating” value (galium; [4]) read?
A: 70

Q: What about the “Galium plant response rating” value (galium; [5]) of the same molecule?
A: 100

Q: And the “Plant response rating, Galium” value (galium; [6])?
A: 95

Q: And the “Oilseed Rape plant response rating” value (oilseed rape; [4])?
A: 95

Q: And the “Oilseed Rape plant response rating” value (oilseed rape; [5])?
A: 100

Q: And the “Plant response rating, Oilseed Rape” value (oilseed rape; [6])?
A: 100

Q: What about the “Waterhemp plant response rating” value (waterhemp; [4]) of the same molecule?
A: 80

Q: And the “Waterhemp plant response rating” value (waterhemp; [5])?
A: 100

Q: And the “Plant response rating, Waterhemp” value (waterhemp; [6])?
A: 100

Q: And the “Plant response rating, Barnyardgrass” value (barnyardgrass [1])?
A: 35

Q: What about the “Soybean plant response rating” value (soybean; [4]) of the same molecule?
A: 0

Q: What about the “Soybean plant response rating” value (soybean; [5]) of the same molecule?
A: 85

Q: What about the “Plant response rating, Soybean” value (soybean; [6]) of the same molecule?
A: 25

Q: What about the “Plant response rating, Barnyardgrass” value (barnyardgrass [2]; [7]) of the same molecule?
A: 10

Q: What about the “Plant response rating, Barnyardgrass” value (barnyardgrass [2]; [8]) of the same molecule?
A: 80

Q: What about the “Morningglory plant response rating” value (morningglory; [4]) of the same molecule?
A: 0

Q: And the “Morningglory plant response rating” value (morningglory; [5])?
A: 100

Q: And the “Plant response rating, Morningglory” value (morningglory; [6])?
A: 55

Q: What about the “Plant response rating, Pigweed” value (pigweed; [7]) of the same molecule?
A: 60

Q: And the “Plant response rating, Pigweed” value (pigweed; [8])?
A: 100

Q: What about the “Barnyardgrass plant response rating” value (barnyardgrass [3]; [4]) of the same molecule?
A: 0

Q: And the “Barnyardgrass plant response rating” value (barnyardgrass [3]; [5])?
A: 100

Q: And the “Plant response rating, Barnyardgrass” value (barnyardgrass [3]; [6])?
A: 90

Q: What about the “Plant response rating, Foxtail, Giant” value (giant foxtail; 31 g ai/ha, 0 to 100 scale where 0 is no effect and 100 is complete control, visual, approximately 10 days) of the same molecule?
A: 40

Q: What about the “Foxtail, Giant plant response rating (0 to 100 scale)” value (giant foxtail) of the same molecule?
A: 100
